# Measured values taken from patent publication US12201632B2, “Levoketoconazole for treatment of congenital adrenal hyperplasia and primary aldosteronism” (Strongbridge Dublin Limited, priority 2018, dated 2025).
# Key:
# [1] = system: EAS associated adrenal hyperplasia no. 1 primary culture; test: Steroid profile by LC/MS-MS in EAS associated adrenal hyperplasia no. 1; assay type: cell-based, human; conditions: for 11-DOC absolute change vs ACTH stimulation with vehicle / 11-DOC percentage change vs ACTH stimulation with vehicle / 17-OHP absolute change vs ACTH stimulation with vehicle / 17-OHP percentage change vs ACTH stimulation with vehicle / Androstenedione absolute change vs ACTH stimulation with vehicle / Androstenedione percentage change vs ACTH stimulation with vehicle / Corticosterone absolute change vs ACTH stimulation with vehicle / Corticosterone percentage change vs ACTH stimulation with vehicle / Cortisol absolute change vs ACTH stimulation with vehicle / Cortisol percentage change vs ACTH stimulation with vehicle / DHEA absolute change vs ACTH stimulation with vehicle / DHEAS absolute change vs ACTH stimulation with vehicle / Prog absolute change vs ACTH stimulation with vehicle / Prog percentage change vs ACTH stimulation with vehicle / Testosterone absolute change vs ACTH stimulation with vehicle / Testosterone percentage change vs ACTH stimulation with vehicle: EAS associated adrenal hyperplasia no. 1, ACTH; for 11-DOC absolute change vs ACTH stimulation with vehicle / 11-DOC percentage change vs ACTH stimulation with vehicle / 17-OHP absolute change vs ACTH stimulation with vehicle / 17-OHP percentage change vs ACTH stimulation with vehicle / Androstenedione absolute change vs ACTH stimulation with vehicle / Androstenedione percentage change vs ACTH stimulation with vehicle / Corticosterone absolute change vs ACTH stimulation with vehicle / Corticosterone percentage change vs ACTH stimulation with vehicle / Cortisol absolute change vs ACTH stimulation with vehicle / Cortisol percentage change vs ACTH stimulation with vehicle / DHEA absolute change vs ACTH stimulation with vehicle / DHEAS absolute change vs ACTH stimulation with vehicle / Prog absolute change vs ACTH stimulation with vehicle / Prog percentage change vs ACTH stimulation with vehicle / Testosterone absolute change vs ACTH stimulation with vehicle / Testosterone percentage change vs ACTH stimulation with vehicle / 11-DOC absolute change vs control / 11-DOC percentage change vs control / 17-OHP absolute change vs control / 17-OHP percentage change vs control / Androstenedione absolute change vs control / Androstenedione percentage change vs control / Corticosterone absolute change vs control / Corticosterone percentage change vs control / Cortisol absolute change vs control / Cortisol percentage change vs control / DHEA absolute change vs control / DHEAS absolute change vs control / Prog absolute change vs control / Prog percentage change vs control / Testosterone absolute change vs control / Testosterone percentage change vs control: 3 days; for 11-DOC absolute change vs control / 11-DOC percentage change vs control / 17-OHP absolute change vs control / 17-OHP percentage change vs control / Androstenedione absolute change vs control / Androstenedione percentage change vs control / Corticosterone absolute change vs control / Corticosterone percentage change vs control / Cortisol absolute change vs control / Cortisol percentage change vs control / DHEA absolute change vs control / DHEAS absolute change vs control / Prog absolute change vs control / Prog percentage change vs control / Testosterone absolute change vs control / Testosterone percentage change vs control: EAS associated adrenal hyperplasia no. 1, Basal
# Procedure: (§1) To obtain primary cultures, adrenal specimens (adrenocortical adenomas, adrenal hyperplasias and adrenocortical carcinomas) were collected after adrenalectomy at the department of Surgery, Erasmus University Medical Center, Rotterdam, the Netherlands, between April 2016 and May 2018. The study was conducted under guidelines that have been approved by the Medical Ethics Committee of the Erasmus Medical Center and informed consent was obtained from all patients. Immediately after surgery, specimens were minced into small pieces of 2-3 mm^3, washed in culture medium and centrifuged for 5 minutes at 600 g. The tissue was stored overnight in culture medium at 4° C., where after the tissue was centrifuged again and the supernatant was removed. Fragments were dissociated using 10-25 ml collagenase type 1 (2 mg/ml: Sigma-Aldrich), followed by incubation at 37° C. for up to two hours. Ficoll (GE healthcare) density gradient separation was used once or twice as required in order to separate contaminating red blood cells from the tumor cells. Cell viability and cell amount were counted by trypan blue exclusion. Dissociated cells were plated at a density of 10^5 cells per well. ACTH-secreting corticotroph pituitary adenoma tissue from patients with Cushing's disease (n=2) was available after transsphenoidal surgery. Single-cell suspensions of the pituitary adenoma tissues were prepared as previously described in detail.
# (§2) Primary culture conditions for primary cultures were similar as described in the section ‘cell culture and compounds’, but with small adjustments: ACTH was used at a concentration of 85 pM (250 pg/mL), treatment was started 3-4 days after plating of the cells and cells were incubated for 3 days, and; for pituitary primary cultures, levoketoconazole and racemic ketoconazole were only tested at a concentration of 1 μM. Owing to a limited number of cells obtained from the specimens, not all experiments were carried out in every primary culture.
# (§3) Cortisol concentrations were measured in the supernatant using a chemiluminescence immunoassay system (Immulite 2000XPi; Siemens DPC Inc., Los Angeles, Calif., USA). In addition, we carried out multi-steroid analysis by liquid chromatography/mass spectrometry (LC/MS-MS) to accurately quantify androstenedione, corticosterone, cortisol, 11-deoxycortisol, DHEA, DHEAS, progesterone, 17-hydroxyprogesterone, and testosterone. Concentrations that were tested on the LC/MS-MS were closest to 50% inhibition or maximal inhibition of cortisol as determined by the immunoassay. Steroids were quantified with respect to a calibration series, with internal standards. Steroids were quantified on a Xevo TQS LC-MS/MS (Waters Chromatography).
# (§4) Statistical analysis was performed using Graphpad Prism 6.0 (Graphpad Software, San Diego, CA). Non-linear regression curve fitting program was used to calculate the half maximal inhibitory concentrations (IC50) on cortisol production. Effects of both compounds on the steroid profile were measured as absolute change compared to control and compared using the Student's t-test. When assessing differences between effects of both compounds, the percentage change was evaluated and compared in order to correct for differences in the vehicle treated control cells. Values of P<0.05 were considered statistically significant and data are presented as mean SEM.
# [2] = system: human primary adrenocortical cultures; test: Cortisol production in human primary adrenocortical cultures, comparison across cultures; assay type: cell-based
# Procedure: as §1, §2, §3, §4
# [3] = six of the ten conditions with direct comparison in the same patient
smiles,measurement,setting,value
"CC(=O)N1CCN(c2ccc(OCC3COC(Cn4ccnc4)(c4ccc(Cl)cc4Cl)O3)cc2)CC1 (racemic) [racemic ketoconazole, Ketoconazole]",11-DOC absolute change vs ACTH stimulation with vehicle,[1]; 0.05 μM,+76.63 nmol/l
same,11-DOC percentage change vs ACTH stimulation with vehicle,[1]; 0.05 μM,(+25%**)
same,17-OHP absolute change vs ACTH stimulation with vehicle,[1]; 0.05 μM,+8.133 nmol/l
same,17-OHP percentage change vs ACTH stimulation with vehicle,[1]; 0.05 μM,(+52%)
same,Androstenedione absolute change vs ACTH stimulation with vehicle,[1]; 0.05 μM,-7.475 nmol/L
same,Androstenedione percentage change vs ACTH stimulation with vehicle,[1]; 0.05 μM,(−39%)
same,Corticosterone absolute change vs ACTH stimulation with vehicle,[1]; 0.05 μM,+105.7 nmol/l
same,Corticosterone percentage change vs ACTH stimulation with vehicle,[1]; 0.05 μM,(+31%)
same,Cortisol absolute change vs ACTH stimulation with vehicle,[1]; 0.05 μM,-62.25 nmol/L
same,Cortisol percentage change vs ACTH stimulation with vehicle,[1]; 0.05 μM,−11%
same,DHEA absolute change vs ACTH stimulation with vehicle,[1]; 0.05 μM,<LLQ
same,DHEAS absolute change vs ACTH stimulation with vehicle,[1]; 0.05 μM,<LLQ
same,Prog absolute change vs ACTH stimulation with vehicle,[1]; 0.05 μM,+3.425 nmol/l
same,Prog percentage change vs ACTH stimulation with vehicle,[1]; 0.05 μM,+96%
same,Testosterone absolute change vs ACTH stimulation with vehicle,[1]; 0.05 μM,-0.1750 nmol/L
same,Testosterone percentage change vs ACTH stimulation with vehicle,[1]; 0.05 μM,(−28%)
same,Cortisol percentage change vs ACTH stimulation with vehicle,"[1]; 0.05 μM, listed as RK",(−11%*)
same,Prog percentage change vs ACTH stimulation with vehicle,"[1]; 0.05 μM, listed as RK",(+96%**)
same,11-DOC absolute change vs ACTH stimulation with vehicle,[1]; 5 μM,-402.7 nmol/L
same,11-DOC percentage change vs ACTH stimulation with vehicle,[1]; 5 μM,(−99%)
same,17-OHP absolute change vs ACTH stimulation with vehicle,[1]; 5 μM,-28.44 nmol/L
same,17-OHP percentage change vs ACTH stimulation with vehicle,[1]; 5 μM,(−90%)
same,Androstenedione absolute change vs ACTH stimulation with vehicle,[1]; 5 μM,-14.79 nmol/L
same,Androstenedione percentage change vs ACTH stimulation with vehicle,[1]; 5 μM,(−98%)
same,Corticosterone absolute change vs ACTH stimulation with vehicle,[1]; 5 μM,-397.6 nmol/L
same,Corticosterone percentage change vs ACTH stimulation with vehicle,[1]; 5 μM,(−100%)
same,Cortisol absolute change vs ACTH stimulation with vehicle,[1]; 5 μM,-643.5 nmol/L
same,Cortisol percentage change vs ACTH stimulation with vehicle,[1]; 5 μM,(−100%)
same,DHEA absolute change vs ACTH stimulation with vehicle,[1]; 5 μM,<LLQ
same,DHEAS absolute change vs ACTH stimulation with vehicle,[1]; 5 μM,<LLQ
same,Prog absolute change vs ACTH stimulation with vehicle,[1]; 5 μM,+39.86 nmol/l
same,Prog percentage change vs ACTH stimulation with vehicle,[1]; 5 μM,(+1292%)
same,Testosterone absolute change vs ACTH stimulation with vehicle,[1]; 5 μM,-0.4350 nmol/L
same,Testosterone percentage change vs ACTH stimulation with vehicle,[1]; 5 μM,(−85%)
same,11-DOC absolute change vs control,[1]; 0.05 μM,-62.23 nmol/L
same,11-DOC percentage change vs control,[1]; 0.05 μM,(−27%)
same,17-OHP absolute change vs control,[1]; 0.05 μM,+0.6833 nmol/l
same,17-OHP percentage change vs control,[1]; 0.05 μM,(+7.5%)
same,Androstenedione absolute change vs control,[1]; 0.05 μM,-5.850 nmol/L
same,Androstenedione percentage change vs control,[1]; 0.05 μM,(−55%)
same,Corticosterone absolute change vs control,[1]; 0.05 μM,-68.60 nmol/L
same,Corticosterone percentage change vs control,[1]; 0.05 μM,(−32%)
same,Cortisol absolute change vs control,[1]; 0.05 μM,-86.78 nmol/L
same,Cortisol percentage change vs control,[1]; 0.05 μM,(−57%)
same,DHEA absolute change vs control,[1]; 0.05 μM,<LLQ
same,DHEAS absolute change vs control,[1]; 0.05 μM,<LLQ
same,Prog absolute change vs control,[1]; 0.05 μM,+4.475 nmol/l
same,Prog percentage change vs control,[1]; 0.05 μM,(+108%)
same,Testosterone absolute change vs control,[1]; 0.05 μM,-0.1500 nmol/L
same,Testosterone percentage change vs control,[1]; 0.05 μM,(−32%)
same,11-DOC absolute change vs control,[1]; 5 μM,-270.7 nmol/L
same,11-DOC percentage change vs control,[1]; 5 μM,(−98%)
same,17-OHP absolute change vs control,[1]; 5 μM,-15.07 nmol/L
same,17-OHP percentage change vs control,[1]; 5 μM,(−92%)
same,Androstenedione absolute change vs control,[1]; 5 μM,-8.219 nmol/L
same,Androstenedione percentage change vs control,[1]; 5 μM,(−94%)
same,Corticosterone absolute change vs control,[1]; 5 μM,-166.5 nmol/L
same,Corticosterone percentage change vs control,[1]; 5 μM,(−98%)
same,Cortisol absolute change vs control,[1]; 5 μM,-165.2 nmol/L
same,Cortisol percentage change vs control,[1]; 5 μM,(−99%)
same,DHEA absolute change vs control,[1]; 5 μM,<LLQ
same,DHEAS absolute change vs control,[1]; 5 μM,<LLQ
same,Prog absolute change vs control,[1]; 5 μM,+19.89 nmol/l
same,Prog percentage change vs control,[1]; 5 μM,(+537%***)
same,Testosterone absolute change vs control,[1]; 5 μM,-0.2688 nmol/L
same,Testosterone percentage change vs control,[1]; 5 μM,(−66%)
same,total change of steroids,"[1]; EAS associated adrenal hyperplasia no. 1, basal condition",-218.5 nmol/L
same,total sum of change of the steroids: increase,"[1]; EAS associated adrenal hyperplasia no. 1, under ACTH stimulation",124.0 nmol/L
same,mean difference in IC50 between both compounds,[2]; four remaining cultures,5%
same,range of difference in IC50 between both compounds,[2]; four remaining cultures,1-8%
same,mean increase IC50 compared to levoketoconazole,[2]; [3],52%
same,range of increase IC50 compared to levoketoconazole,[2]; [3],33-113%
